Experimental data taken from the supplement of paper PMC6045584.
± gives the standard deviation of the averaged measurements.

Assays:
[1] = compound: T1, Cc1ccc(-c2cc(C(F)(F)F)nn2-c2ccc(S(N)(=O)=O)cc2)cc1 [CELECOXIB]; assay: surviving fraction relative to DMSO-only wells; higher = less growth inhibition; conditions: exposure time: 5 days
Outline: (§1)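 Continuous five-day exposure to inhibitors at 0.5, 1, 5, 10, 50, 100, 500 and 1000 nM started 24 hours after log-phase tumour cell lines were seeded at 250–500 cells per well in 384-well plates. Luminescence was read after 10 minutes at room temperature. Viability is given as surviving fraction, meaning CellTiter-Glo luminescence normalised to the median of DMSO-only wells.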

[2] = compound: T2, COc1cc2ncnc(Nc3ccc(F)c(Cl)c3)c2cc1OCCCN1CCOCC1 [GEFITINIB]; assay: as above; conditions: exposure time: 5 days
Outline: as §1

[3] = compound: CC(=O)c1c(C)c2cnc(Nc3ccc(N4CCNCC4)cn3)nc2n(C2CCCC2)c1=O; assay: as above; conditions: exposure time: 5 days
Outline: as §1

[4] = compound: T3, COCC[n+]1c2c(n(Cc3cnccn3)c1C)C(=O)c1ccccc1C2=O [YM155]; assay: as above; conditions: exposure time: 5 days
Outline: as §1

[5] = compound: CC(=O)NCC(=O)N1[C@@H]2CC[C@H]1c1ccc(Nc3ncc(C(F)(F)F)c(NC4CCC4)n3)cc12; assay: area under dose-response curve of surviving fraction (unscaled, Aref=0) (surviving fraction x log10(nM)); higher = more resistant; conditions: exposure time: 5 days; dose range 0.5-1000 nM
Outline: (§2)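 Each tumour cell line was screened three times in 384-well plates, receiving eight inhibitor concentrations from 0.5 to 1000 nM for five days. CellTiter-Glo luminescence gave viability, normalised to DMSO-only wells. Using the drc R package, surviving fractions were fitted with 3-parameter logistic dose-response curves, and the unscaled activity area over log10 dose (Aref = 0) was taken as the area under the curve.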

[6] = compound: CC(=O)O[C@H]1C(=O)[C@@]2(C)[C@H]([C@H](OC(=O)c3ccccc3)[C@]3(O)C[C@H](OC(=O)[C@H](O)[C@@H](NC(=O)c4ccccc4)c4ccccc4)C(C)=C1C3(C)C)[C@]1(OC(C)=O)CO[C@@H]1C[C@@H]2O [PACLITAXEL]; assay: as above; conditions: exposure time: 5 days; dose range 0.5-1000 nM
Outline: as §2

[7] = compound: C[C@]1(O)C[C@@H](c2nc(-c3ccc4ccc(-c5ccccc5)nc4c3)c3c(N)nccn32)C1 [OSI-906]; assay: as above; conditions: exposure time: 5 days; dose range 0.5-1000 nM
Outline: as §2

[8] = compound: CC[C@@]1(O)C(=O)OCc2c1cc1n(c2=O)Cc2cc3ccccc3nc2-1 [CAMPTOTHECIN]; assay: as above; conditions: exposure time: 5 days; dose range 0.5-1000 nM
Outline: as §2

[9] = compound: O=C(O)C1(C(=O)O)CCC1.[NH2-].[NH2-].[Pt+2] [CARBOPLATIN]; assay: as above; conditions: exposure time: 5 days; dose range 0.5-1000 nM
Outline: as §2

[10] = compound: T1, CELECOXIB; assay: as above; conditions: exposure time: 5 days; dose range 0.5-1000 nM
Outline: as §2

[11] = compound: T2, GEFITINIB; assay: as above; conditions: exposure time: 5 days; dose range 0.5-1000 nM
Outline: as §2

[12] = compound: CC(=O)c1c(C)c2cnc(Nc3ccc(N4CCNCC4)cn3)nc2n(C2CCCC2)c1=O; assay: as above; conditions: exposure time: 5 days; dose range 0.5-1000 nM
Outline: as §2

[13] = compound: T3, YM155; assay: as above; conditions: exposure time: 5 days; dose range 0.5-1000 nM
Outline: as §2

HCT15 LARGE INTESTINE
surviving fraction ([1]; 0.5 nM): 1.02 ± 0.062 | surviving fraction ([1]; 1 nM): 1.03 ± 0.031 | surviving fraction ([1]; 5 nM): 1.06 ± 0.039 | surviving fraction ([1]; 10 nM): 1.04 ± 0.022 | surviving fraction ([1]; 50 nM): 1.07 ± 0.061 | surviving fraction ([1]; 100 nM): 1.07 ± 0.077 | surviving fraction ([1]; 500 nM): 1.09 ± 0.053 | surviving fraction ([1]; 1000 nM): 1.1 ± 0.044 | surviving fraction ([2]; 0.5 nM): 1.05 ± 0.033 | surviving fraction ([2]; 1 nM): 1.04 ± 0.017 | surviving fraction ([2]; 5 nM): 0.982 ± 0.025 | surviving fraction ([2]; 10 nM): 1.04 ± 0.054 | surviving fraction ([2]; 50 nM): 1.07 ± 0.04 | surviving fraction ([2]; 100 nM): 1.046 ± 0.0061 | surviving fraction ([2]; 500 nM): 1.04 ± 0.039 | surviving fraction ([2]; 1000 nM): 1.07 ± 0.052 | surviving fraction ([3]; 0.5 nM): 1.09 ± 0.044 | surviving fraction ([3]; 1 nM): 1.05 ± 0.028 | surviving fraction ([3]; 5 nM): 1.06 ± 0.025 | surviving fraction ([3]; 10 nM): 1.03 ± 0.052 | surviving fraction ([3]; 50 nM): 1.14 ± 0.055 | surviving fraction ([3]; 100 nM): 1.1 ± 0.038 | surviving fraction ([3]; 500 nM): 1.12 ± 0.058 | surviving fraction ([3]; 1000 nM): 1.11 ± 0.035 | surviving fraction ([4]; 0.5 nM): 0.916 ± 0.056 | surviving fraction ([4]; 1 nM): 1.01 ± 0.051 | surviving fraction ([4]; 5 nM): 0.975 ± 0.017 | surviving fraction ([4]; 10 nM): 0.974 ± 0.029 | surviving fraction ([4]; 50 nM): 0.467 ± 0.028 | surviving fraction ([4]; 100 nM): 0.185 ± 0.029 | surviving fraction ([4]; 500 nM): 0.061 ± 0.0027 | surviving fraction ([4]; 1000 nM): 0.0557 ± 0.0031 | area under dose-response curve [5]: 2.05 | area under dose-response curve [6]: 1.76 | area under dose-response curve [7]: 2.9 | area under dose-response curve [8]: 0.543 | area under dose-response curve [9]: 3.51 | area under dose-response curve [10]: 3.49 | area under dose-response curve [11]: 3.44 | area under dose-response curve [12]: 3.59 | area under dose-response curve [13]: 2.03
